The values below come from patent US10780069B2, “Use of GC-1 in transplant related population” (University of Pittsburgh—Of the Commonwealth System of …, priority 2017, dated 2020).

The nature of series [1]: Serum ALT/bilirubin and hepatic histology after GC-1 or T3. Format: in vivo, mice. Conditions: T3 (4 mg/Kg of diet) or GC-1 (5 mg/Kg of diet) chow 8 days, vs basal diet. On the procedure:
(§1) All studies on mice were performed in strict accordance with Guidelines. Eight-week old male C57BL/6 male mice (Jackson/Charles River) were maintained on a standard laboratory basal diet (Test Diet) (n=4), or fed a T3-supplemented diet (4 mg/Kg of diet, Sigma Chemicals, St. Louis Mo.) (n=4). GC-1 was administered to the eight week-old male C57BL/6 male mice either via GC-1-supplemented diet (5 mg/Kg of diet, Medchem Express) for 8 days (n=4) or via daily intraperitoneal injections (IP) of GC-1 dissolved in DMSO (0.3 mg/kg/dose) for 8 days (n=7). As a control group for injections, DMSO alone was injected daily intraperitoneal (IP) for 8 days (n=5). Mice were sacrificed 24 hours after the last injection.

Series [2] concerns hepatocytes. Nature of the series: GC-1 or T3 in hepatocyte specific β-catenin knockout mice (β-Cat LKO) and littermate controls. Format: in vivo. The procedure: Eight to 10 week old male hepatocyte specific β-catenin knockout mice (β-cat-LKO) or sex-matched littermate controls obtained from breeding homozygous floxed β-catenin mice and albumin-cre transgenic mice (as described elsewhere (Tan et al., (2006) Gastroenterology 131, 1561-1572)) were given 8 daily IP injections of GC-1 (n=4) or DMSO (n=4) and harvested around 24 hours after the last injection.
(§2) To label dividing hepatocytes, BrdU (5-bromodeoxyuridine) dissolved in drinking water (1 mg/ml) was given to all animals throughout the experiment period. The animals were given food and water ad libitum with a 12-hour light/dark daily cycle.
(§3) Four micron liver sections were analyzed by immunohistochemistry for β-Catenin (BD Biosciences, San Jose, Calif.), Cyclin-D1 (Thermo-Scientific, Fremont, Calif.) and PCNA (Santa Cruz Biotechnology, Dallas, Tex.). Briefly, formalin-fixed sections were deparaffinized in graded xylene and alcohol. Endogenous peroxidase was inactivated using 3% hydrogen peroxide (Sigma). For β-Catenin, Cyclin-D1 staining, slides were microwaved in Citrate buffer followed by blocking with Superblock for 10 minutes. Sections were then incubated with secondary anti-mouse (for β-catenin) or anti-rabbit (for Cyclin-D1) horseradish peroxidase-conjugated antibody for 30 minutes.
(§4) Bromodeoxyuridine (BrdU) was stained with mouse antibody (Becton Dickinson) as previously described (Fanti et al. (2014) Hepatology 59, 2309-2320). Briefly, tissue sections were deparaffinized, exposed to 0.3% hydrogen peroxide in deionized water for 10 minutes to block endogenous peroxidase, treated with 2N HCl, incubated with trypsin 0.1% for 20 minutes and then with normal goat serum for 20 minutes at room temperature. Sections were then incubated overnight in cold room with anti-BrdU monoclonal antibody, followed by biotinylated goat anti-mouse IgG. DAB kit was then applied, and sections were counterstained with hematoxylin. A small segment of intestine was included from each mouse as a positive control for the staining. For quantification of BrdU staining, at least 10 high power fields (400× or 600×) fields each from at least three biological replicates were counted as indicated in the figures. Statistical analysis was performed as described below.
(§5) Protein extraction from frozen liver tissue and western blot analysis were performed as previously described (Fanti et al., (2014) Hepatology 59, 2309-2320). For protein extraction, a small amount of frozen liver tissue was obtained (over dry ice) and was homogenized using RIPA buffer with protease and phosphatase inhibitor cocktail (Sigma, St. Louis, Mo.). Samples were transferred to a 1.5 ml tube on ice, and spun in cold room centrifuge at 14,000 RPM for 5 minutes. Pellet was then discarded and sample was aliquoted and stored at −80 C for use. Fifty micrograms of the proteins were resolved by sodium dodecyl sulfate-polyacrylamide gel electrophoresis analysis, and transferred to immobilon-polyvinylidene difluoride membranes.
(§6) The primary antibodies used were against β-catenin (BD Biosciences); pSer675-β-catenin, pSer552-β-catenin, Active-β-catenin (Cell-Signaling), Cyclin-D1 (Thermo-Scientific), and β-Actin (Sigma). Dilutions of primary antibody were done according to manufacturer recommendations (1:1000 for all except Cyclin-D1 which was 1:200). Horseradish peroxidase-conjugated secondary antibodies used were goat anti-mouse (1:20,000) and goat anti-rabbit (1:10,000) (Millipore). The proteins were detected by Super-Signal West Pico Chemiluminescense Substrate (Thermo Scientific, Rockford Ill.) and visualized by autoradiography.
Total RNA was extracted by homogenizing frozen liver tissues in Trizol reagent (Invitrogen, Carlsbad, Calif.) from GC-1-injected β-Cat LKO (n=4) and littermate control mice (n=4); and GC-1-injected LRP5-6 LKO (n=3) and littermate control mice (n=3). […]

Series [3] relates to hepatocytes. The experiment in a line: T3- or GC-1-supplemented diet in wild type mice: hepatocyte proliferation. It is filed as in vivo. On the procedure: as §1, §2, §3, §4
The subject of series [4] is hepatocytes. The experiment in a line: Partial hepatectomy after pretreatment with T3 or GC-1 supplemented diet. Format: in vivo, mice. On the procedure: as §2
After 7 days of receiving T3 supplemented diet (n=3) or GC-1 diet (n=3) or standard basal mouse chow (n=3), C57BL/6 male mice underwent partial hepatectomy as described previously (Tan et al. (2006) Gastroenterology 131, 1561-1572). Anesthesia was provided with inhaled Isoflurane. The animals were sacrificed 24 hours post hepatectomy, after Isoflurane anesthesia and cervical dislocation. Serum and liver tissue were harvested for further processing.
as §3, §4

For a further series, the system named is liver regeneration. Conditions: rats; Columbano et al. (2008); cited from earlier work.
Series [5] has as its system hepatocytes. The experiment in a line: T3 or GC-1 in LRP5-6 LKO mice and littermate controls. Format: in vivo. On the procedure:
Eight to 10 week-old LRP5-6-LKO were obtained from breeding homozygous LRP5-6 double floxed mice with albumin-cre transgenic mice as described previously (Yang et al. (2014) Hepatology 60, 964-976). LRP5-6-LKO or sex matched littermate controls were given either T3-supplemented diet (n=4), basal diet (n=3), IP GC-1 (n=3) or IP DMSO (n=3). Mice were sacrificed at 24 hours after the last IP injection.
To label dividing hepatocytes, BrdU (5-bromodeoxyuridine) dissolved in drinking water (1 mg/ml) was given to all animals throughout the experiment period. The animals were given food and water ad libitum with a 12-hour light/dark daily cycle. […]
as §5
as §6, with “autoradiography. […]” for “autoradiography.”

The subject of series [6] is preneoplastic hepatocytes. To be noted: resistant-hepatocyte model of hepatocarcinogenesis (T3, rats); Ledda-Columbano 2000, Perra 2009; cited from earlier work.

As for `N[C@@H](Cc1cc(I)c(Oc2ccc(O)c(I)c2)c(I)c1)C(=O)O` [T3, Triiodothyronine], the “histological changes in the livers” value in series [1] was “no histological changes”. Further, the “active β-catenin, Western blot” value in the series on hepatocytes [2] (β-Cat LKO after T3 or GC-1 treatment) is recorded as “very faint signal”. Further, the “P-Ser675-β-catenin, Western blot” value with hepatocytes [2] (β-Cat LKO vs controls treated with GC-1 or T3) is reported as “absent”. Further, the BrdU incorporation result in the series with hepatocytes [3] (T3 (4 mg/Kg of diet) or GC-1 (5 mg/Kg of diet) chow 8 days, vs basal diet) is reported as “increased BrdU incorporation”. Moreover, the “cyclin-D1 staining in hepatocytes” value in the series on hepatocytes [3] (T3 diet or IP GC-1, 8 days, vs respective controls) is given as “notably increased cyclin-D1 staining”. For the same compound, the “cyclin-D1 staining in hepatocytes” value with hepatocytes [3] (T3 or GC-1 supplemented diet 8 days, vs basal diet) is reported as “increased in both groups”. For the same compound, the “BrdU-positive hepatocytes, T3 diet versus IP GC-1” value with hepatocytes [3] (T3 supplemented diet versus IP GC-1, 8 days, p<0.001 between groups) is listed as “highest proliferation”. Further, the “nuclear cyclin-D1 immunohistochemistry at 24 hours after hepatectomy” value in the series with hepatocytes [4] (24 hours after hepatectomy) is “panlobular distribution”. The “hepatocyte proliferative response post hepatectomy, T3 versus GC-1” value in the series with hepatocytes [4] (24 hours post hepatectomy) is listed as “significantly greater hepatocyte proliferative response than GC-1”. Moreover, in the series on hepatocytes [4] (diet pretreatment, vs basal diet), the “BrdU positive hepatocyte nuclei at 24 hours after hepatectomy” value is “pronounced increase”. Further, the “increase in hepatocyte proliferation over the 24-hour liver regeneration period” value with hepatocytes [4] (pre-hepatectomy vs 24 hour-post hepatectomy, same animals, all three mice) is “around 2 fold”. Also, in the series on hepatocytes [4] (pretreatment livers), the “cyclin-D1 immunohistochemistry in resected lobes at time of hepatectomy” value is on record as “expansion of cyclin-D1 positive hepatocytes in the midzonal area”. Further, the “BrdU-positive hepatocytes in resected lobes at time of hepatectomy” value with hepatocytes [4] (seven-day pretreatment, vs basal diet) is reported as “increased BrdU-positive hepatocytes”. In the series on liver regeneration, the “liver regeneration after partial hepatectomy” value is “regenerative advantage” and the “survival in a 90% hepatectomy model” value is listed as “survival advantage”. Moreover, the “pSer675-β-catenin levels, Western blot” value with hepatocytes [5] (LRP5-6-LKO and littermate controls) is “comparable or even greater levels”. Besides, the “pSer552-β-catenin levels, Western blot” value in the series on hepatocytes [5] (LRP5-6 LKO) was “modest increase”. Moreover, the “active β-catenin levels” value in the series with hepatocytes [5] (LRP5-6 LKO after T3 or GC-1 feeding vs basal diet) is listed as “no notable differences”. Besides, in the series with hepatocytes [5] (LRP5-6 LKO vs controls), the “cyclin-D1 protein and mRNA expression” value is on record as “decreased”; the “numbers of cyclin-D1-positive hepatocytes (immunohistochemistry)” value was “notably decreased”; the “total β-catenin levels” value was “comparable levels”. In addition, in the series with hepatocytes [5] (LRP5-6 LKO vs controls, T3 diet 4 mg/Kg of diet or GC-1 0.3 mg/Kg/dose IP 8 days), the “number of BrdU-labeled hepatocyte nuclei” value is listed as “notable decrease”. In addition, the “active β-catenin levels in liver lysates” value in the series with hepatocytes [5] (control mice fed T3 or GC-1 diet for 8 days vs basal diet) is listed as “dramatic increase”. Further, in series [6], the “effect on preneoplastic lesions / carcinogenic process” value was “accelerate remodeling of chemically-induced preneoplastic lesions”.
